We go through two molecules from patent US10241113B2, “CD28 expression during lenalidomide immune modulation” (H. LEE MOFFITT CANCER CENTER AND RESEARCH INSTITUTE, INC., priority 2012, dated 2019).

The subject of data set [1] is CD28. Kind of data set: CD28 mRNA expression by RT-qPCR. The class given is cell-based, human. As to conditions: anti-CD3 stimulation, 18 or 24 hours. On the procedure: (§1) Total RNA was extracted from purified T-cells using the RNeasy Mini Kit (Qiagen, Chatsworth, Calif. USA). […] Relative target gene expression was measured by qRT-PCR using 18S rRNA expression as a reference gene. Expression levels of target mRNA and 18S rRNA were evaluated with Taqman Probes obtained from Applied Biosystems (Carlsbad, Calif.). All samples for both target genes (IL-2 or CD28) and 18S rRNA were measured in triplicate. Relative mRNA expression level for each sample was calculated using the ΔΔCt method (Pfaffl M W. Nucleic Acids Res 2001 May 1; 29(9):e45).

The subject of data set [2] is IL-2 gene. Kind of data set: IL-2 mRNA expression by RT-qPCR. The format is cell-based, human. As to conditions: anti-CD3 alone without anti-CD28, 18 hours.
Text: (§2) Peripheral blood from buffy coats of healthy donors was obtained from the Southwest Florida Blood Services, St. Petersburg, Fla., for use as controls and for the purification of T-cells. T-cells were isolated from the buffy coats using RosetteSep® Human CD3^+ T-cell Enrichment Cocktail (StemCell Technologies, Vancouver, BC Canada) according to the manufacturer's protocol. B57BL6 mice were maintained at an animal facility in accordance with the University of South Florida Committee on Animal Care. All mice were adult age 8-12 weeks, obtained from The Jackson Laboratory, and maintained in a pathogen-free environment at Moffitt Cancer Center. Mouse-specific antibodies for T-cell activation were purchased from eBioscience (San Diego, Calif.) and human-specific antibodies were purchased from BD Biosciences (San Jose, Calif. USA). […]
as §1
For orientation: Real-time PCR tracks product formation cycle by cycle.

The test system of data set [3] is CD28^+ T-cells. Kind of data set: IL-2 ELISA after CD28 siRNA knockdown. The class given is cell-based, human. Particulars: average. The method, then: (§3) For siRNA knockdown (KD), T-cells were transfected with siCD28 or control siRNA (Santa Cruz Biotechnology, Inc, Santa Cruz, Calif. USA) using Amaxa Nucleofection technology (Lonza, Basel, Switzerland). 10×10^6 purified T-cells were mixed with either control or CD28 siRNA in 100 μl Human T-cell nucleofection solution, nucleofected, and then placed in Lymphocye Media (Lonza Basel, Switzerland). Cells were rested 24 hours before being stimulated with either plate bound anti-CD3, or anti-CD3^+CD28, antibodies in the presence or absence of LEN. CD28 surface expression was measured via flow cytometry at 48 and 72 hours after stimulation, at the same time supernatant was collected for ELISA analysis. Supernatant from stimulation experiments was frozen at −80° C. for analysis via Human IL-2 ELISA kit (eBioscience, San Diego, Calif. USA).

Data set [4] has as its system CD8^+CD28^+ and CD8^+CD28^− T-cells. Kind of data set: BrdU proliferation of sorted CD8^+CD28^+ and CD8^+CD28^− T-cells. The class given is cell-based, human. As to conditions: 3 days, 10 μM LEN. On the procedure: Proliferation was determined after in vitro activation by bromodeoxyuridine (BrdU) incorporation (BrdU flow kit, BD Biosciences, San Diego, Calif. USA). […] of BrdU was added during the last 45 min of T-cell stimulation. BrdU pulsed T-cells were harvested and stained with anti-CD4-PE and anti-CD8-PE-Cy-5 (BD Pharmingen, San Jose, Calif. USA). The cells were then fixed and permeabilized with BD Cytofix/Cytoperm buffer and incubated with DNase for 1 hour at 37° C. Cells were stained with anti-BrdU-FITC antibody before flow cytometry analysis on an LSRII flow cytometer (BD Biosciences, San Jose, Calif. USA). The percentage of BrdU positive cells from each population was analyzed using Flow-Jo Software (TreeStar Inc, Ashland, Oreg. USA.).
(§4) T-cells were purified from healthy donor buffy coats as previously described, and were stained with 4′,6-diamidino-2-phenylindole (DAPI) for viability, anti-CD8-APC-Cy7, CD4-PerCP-Cy5.5, and CD28-FITC antibodies (BD Pharmingen, San Jose, Calif.). Cells were then sorted into CD8^+CD28^+, CD8^+CD28^− populations via FACS Aria Cell Sorter (BD Pharmingen, San Jose, Calif.).

Data set [5] relates to pCREB binding to the IL-2 promoter. Put plainly: Chromatin immunoprecipitation of pCREB at the IL-2 promoter. As to conditions: anti-CD3 alone, 18 hours, 10 μM LEN. The class given is cell-based, human. On the procedure: Cells were isolated, fixed, lysed, and sonicated before chromatin-immunoprecipitation, as previously described (Smith M A, et al. J Biol Chem 2011 Mar. 11; 286(10):7893-904). Briefly, after stimulation and drug treatment, primary T-cells were treated with 1% formaldehyde for 10 min for cross-linking, followed by cell and nuclear lysis (50 mM Tris, pH 8.1, 10 mM EDTA, 1% SDS, 0.5 mM PMSF) and shearing. Chromatin was immunoprecipitated using 5 μg anti-phospho-CREB antibody (Millipore, Temecula, Calif. USA) and protein A/G beads (Santa Cruz Biotechnology Inc., Santa Cruz, Calif. USA). Immunoprecipitated chromatin was collected and washed sequentially with TSE buffer (20 mM Tris, pH 8.1, 50 mM NaCl, 2 mM EDTA, 0.1% SDS, 1.0% Triton X-100) and LiCl buffer (100 mM Tris, pH 8.1, 50 mM LiCl, 1% Nonidet P-40, 1% sodium deoxycholic acid, 1 mM EDTA). DNA was then eluted from the beads with 50 mM NaHCO3 containing 1% SDS and cross-linking reversed at 65° C. overnight followed by proteinase K treatment. DNA was then purified via QIAquick PCR purification kit (Qiagen, Germantown, Md. USA). For each sample, 4 μl DNA was amplified and measured using Sybr Green (Bio-Rad, Inc., Hercules, Calif. USA). Primers used to amplify the pCREB binding site-180 upstream of the transcription start site were: forward: 5′-[…]-3′ (SEQ ID NO:1) and reverse: 5′-[…]-3′ (SEQ ID NO:2).

In data set [6] the test system is MDS patients. Put plainly: Hematologic response of MDS patients versus pre-treatment CD28 expression. The class given is in vivo, human. As to conditions: 10 mg 21 of 28 days, 16 weeks, 7 NR and 4 R. The method, then:
MDS patients (n=100) were consented at H. Lee Moffitt Cancer Center in Tampa, Fla. to participate in a peripheral blood collection protocol approved by the University of South Florida Institutional Review Board from 2004-2009. All patients signed University of South Florida Institutional Review Board approved informed consents for the collection of 40 ml of peripheral blood in heparin tubes. Samples were obtained from each patient at various times from 2004-2009 for immune monitoring studies and all cells were frozen in liquid nitrogen. Twenty-one of these patients had samples that were collected within 4 weeks prior to LEN treatment. LEN was administered at a dose of 10 mg for 21 out of a 28-day cycle for four cycles. All patients were evaluated for hematologic response after 16 weeks according to 2006 International Working Group Criteria (IWG). […]
Naïve and memory CD4 and CD8 T-cell subtypes in MDS patients and healthy donors were detected after surface staining with anti-CD3-PE-Cy7, anti-CD8-PerCP-Cy5.5, anti-CD45RA-FITC, anti-CD27-APC, anti-CD28-PE, and DAPI (all from BD Biosciences, San Jose, Calif. USA). […] Samples were run on an LSRII flow cytometer (BD Pharmingen) and populations were analyzed by FlowJo Software (Tree Star Inc., Ashland, Oreg. USA).

The test system of data set [7] is CD28. Kind of data set: Western blot for total CD28 protein expression. The format is cell-based, human. As to conditions: anti-CD3 activation for 1, 2, 4, 8, 12, and 48 hours.
The test system of data set [8] is CD8^+CD28^− T-cells. Put plainly: IL-2 ELISA of sorted CD8^+CD28^− T-cells. The class given is cell-based, human. Particulars: anti-CD3 stimulation, 3 days, 10 μM LEN.
Text: as §4, §3
Background: ELISA stands for enzyme-linked immunosorbent assay.

In data set [9] the test system is CD28. Kind of data set: CD28 internalization and re-expression by flow cytometry after co-stimulation. The class given is cell-based, human. On the procedure:
as §3
(Flow cytometry measures light scatter and fluorescence of single cells or particles in a stream.)

Data set [10] deals with purified human T-cells. Kind of data set: T-cell proliferation by BrdU incorporation, anti-CD3 stimulated. Particulars: increasing anti-CD3, 10 μM LEN. The format is cell-based.
Text: as §2, with “USA). To activate the T-cell receptor (TCR), T-cells were stimulated with plate-bound anti-CD3 antibody (1 μg/ml or indicated concentration) coated onto flat-bottomed polystyrene tissue culture plates overnight at 4° C.” for “USA).”
Proliferation was determined after in vitro activation by bromodeoxyuridine (BrdU) incorporation (BrdU flow kit, BD Biosciences, San Diego, Calif. USA). […] The percentage of BrdU positive cells from each population was analyzed using Flow-Jo Software (TreeStar Inc, Ashland, Oreg. USA.).

The subject of data set [11] is CD28. Kind of data set: CD28 surface expression by flow cytometry after anti-CD3 stimulation. The class given is cell-based, human. As to conditions: anti-CD3 alone, 72 hours. On the procedure: Stimulation followed by measurement of CD28 surface expression was performed using anti-CD3 (10 μg/ml) alone or anti-CD3 (10 μg/ml) plus anti-CD28 (10 μg/ml) coupled 4.5 micron polystyrene polybeads (Polysciences, Inc, Warrington, Pa. USA). 1×10^5 beads were added to 2×10^5 cells in u-bottom 96-well plates, as previously described (Viola A, et al. Science 1999 283(5402):680-2). Cells were collected at 72 hours and 5 days, and CD28 surface expression was measured via flow cytometry on LSRII flow cytometer (BD Biosciences, San Jose, Calif. USA).

Data set [12] in a line: Storage of DMSO stock solutions. The class given is physicochemical. Particulars: −20° C. The source says: (§5) Lenalidomide (Revlimid®) was provided by Celgene Corporation (Warren, N.J.). […] An equal volume of DMSO was used as a vehicle control.
The subject of data set [13] is murine T-cells. Kind of data set: IL-2 production by ELISA in murine T-cells. The class given is cell-based, B57BL6 mice.
Text: (§6) Peripheral blood from buffy coats of healthy donors was obtained from the Southwest Florida Blood Services, St. Petersburg, Fla., for use as controls and for the purification of T-cells. T-cells were isolated from the buffy coats using RosetteSep® Human CD3^+ T-cell Enrichment Cocktail (StemCell Technologies, Vancouver, BC Canada) according to the manufacturer's protocol. B57BL6 mice were maintained at an animal facility in accordance with the University of South Florida Committee on Animal Care. All mice were adult age 8-12 weeks, obtained from The Jackson Laboratory, and maintained in a pathogen-free environment at Moffitt Cancer Center. Mouse-specific antibodies for T-cell activation were purchased from eBioscience (San Diego, Calif.) and human-specific antibodies were purchased from BD Biosciences (San Jose, Calif. USA). To activate the T-cell receptor (TCR), T-cells were stimulated with plate-bound anti-CD3 antibody (1 μg/ml or indicated concentration) coated onto flat-bottomed polystyrene tissue culture plates overnight at 4° C. Purified T-cells (1×10^6/ml) were added to the coated 96-well plates in a 200 μl volume for 48 hours at 37° C. In some instances, 1.0 μg/ml anti-CD28 was added for co-stimulation.
as §5

The subject of data set [14] is purified human T-cells. Put plainly: IL-2 production by ELISA in stimulated T-cells. The class given is cell-based.
Text: as §6, §5
as §3, with “Supernatant from stimulation experiments was frozen at −80° C. for analysis via Human IL-2 ELISA kit (eBioscience, San Diego, Calif. USA).” left out

For data set [15] the following is noted: species comparison; cited from earlier work.

Turning to `Nc1cccc2c1CN(C1CCC(=O)NC1=O)C2=O` (stereo not drawn) [LEN, Lenalidomide], the “CD28 mRNA” value in data set [1] was “did not significantly increase”. In addition, in data set [2], the “IL-2 mRNA compared to DMSO” value was “dose-dependent increase in IL-2 mRNA”. The “LEN-induced IL-2 release, fold increase” value in data set [3] (control siRNA) was 7.5 fold; in data set [3] (siRNA-CD28 knockdown), 4.9 fold. Besides, in data set [4] (anti-CD3 stimulation alone), the “proliferation of CD8^+CD28^+ T-cells” value was “increased proliferation of CD8^+CD28^+ T-cells in a dose-dependent fashion”. In [4] (anti-CD3 stimulation), the “proliferation of CD8^+CD28^− T-cells compared to DMSO” value is reported as “displayed no response to LEN”. For the same molecule, the “binding of pCREB to the IL-2 promoter compared to DMSO” value in data set [5] is recorded as “increases binding of pCREB to the IL-2 promoter”. Moreover, the “hematologic response (IWG) in relation to pre-treatment CD28^+ T-cells” value in data set [6] was “correlation between accumulation of CD28^− T-cells and resistance to LEN”. Besides, in [7], the “total protein expression of CD28” value was “did not significantly increase”. Besides, the “elaboration of IL-2 in CD8^+CD28^− T-cells” value in [8] is on record as “completely abolished in CD8^+CD28^− T-cells with no response to LEN”. In data set [9] (after anti-CD3 plus anti-CD28 stimulation), the CD28 re-expression result is given as “re-expression was slightly increased”. Besides, the “ligand-induced CD28 internalization” value in data set [9] (anti-CD3 plus anti-CD28 stimulation) is “does not impair ligand-induced internalization”. The “proliferating cells (% BrdU positive) compared to DMSO” value in data set [10] is on record as “stimulated more cells to proliferate in a dose dependent fashion”. The “CD28 surface expression (MFI) compared to DMSO” value in data set [11] is “amplifies this anti-CD3 response”. Also, the “stability of stock solutions on storage” value in data set [12] was “variable loss in activity”. Besides, in [13] (anti-CD3 alone), the “IL-2 production in TCR-stimulated murine T-cells” value is on record as “failed to induce IL-2 production”. In addition, in data set [13] (anti-CD3 plus anti-CD28), the “anti-CD28 signaling response (IL-2) in murine T-cells” value is listed as “failed to intensify the anti-CD28 signaling response”. Moreover, in [14] (fixed 5 μg/ml anti-CD3 alone), the “IL-2 production with increasing concentrations of LEN” value was “dose-dependency of IL-2 production”. The “increase in IL-2 production” value in data set [14] (human T-cells, anti-CD3 plus anti-CD28 co-stimulation, average, p<0.001) worked out at 6 fold. The “production of IL-2 compared to DMSO” value in [14] (human T-cells, increasing anti-CD3, no anti-CD28, 10 μM LEN) is listed as “increased the production of IL-2”.

With `O=C1CCC(N2C(=O)c3ccccc3C2=O)C(=O)N1` (stereo not drawn) [Thalidomide], in data set [15], the teratogenic activity entry is “teratogenic activity only in humans, rabbits, chickens and zebrafish, but not in rodents”.
